Experiment [1] concerns wild-type EGFR overexpressing Ba/F3 cells. Description: Growth inhibition of Ba/F3 cells engineered to overexpress wild-type EGFR (CellTiter-Glo luminescence). Type of experiment: cell-based. The following applies: Mus musculus, BaF3, 72 hours, concentrations 10000 to 8 nM, read-out: Ba/F3 EGFR^WT GI50 class. The gist of the method:
(§1)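 Ba/F3 cells overexpressing HER2 A775_G776insYVMA (1000–0.32 nM) or wild-type EGFR (10000–8 nM) treated 72 h at 37°C in RPMI/10% FBS. Viability by CellTiter-Glo luminescence; GI50 by nonlinear regression with untreated growth set at 100%.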
In general terms: ATP-based viability assays read luminescence as a measure of living cells.

Another experiment concerns Ba/F3 HER2 A775insYVMA. Description: Growth inhibition of Ba/F3 cells engineered to overexpress HER2 A775_G776insYVMA (CellTiter-Glo luminescence). The following applies: Mus musculus, BaF3, 72 hours, concentrations 1000 to 0.32 nM, read-out: Ba/F3 HER2^YVMA GI50 class. The class given is cell-based. The gist of the method:
as §1

SMILES strings stand for the structures. Bounds are passed on as bounds.

Turning to `C=CC(=O)N(C)CC#Cc1ccc2ncc(C#N)c(Nc3ccc(Oc4ccn5ncnc5c4)c(C)c3)c2c1` [Example 70, N-(3-(4-((4-([1,2,4]triazolo[1,5-a]pyridin-7-yloxy)-3-methylphenyl)amino)-3-cyanoquinolin-6-yl)prop-2-yn-1-yl)-N-methylacrylamide], the GI50 in experiment [1] lay within 1 to 5 µM; with Ba/F3 HER2 A775insYVMA, 0.1 to 1 µM.
For `C=CC(=O)N(C)C/C=C/c1ccc2ncnc(Nc3ccc(Oc4ccc5c(c4)ncn5C)c(F)c3)c2n1` [Example 55, (E)-N-(3-(4-((3-fluoro-4-((1-methyl-1H-benzo[d]imidazol-5-yl)oxy)phenyl)amino)pyrido[3,2-d]pyrimidin-6-yl)allyl)-N-methylacrylamide], in that order: more than 5 µM and less than 0.1 µM.
Taken in the same sequence, the figures for `C=CC(=O)N(C)C/C=C/c1ccc2ncnc(Nc3ccc(Oc4ccc5c(c4)ncn5C)c(C)c3)c2c1` [Example 22] were 1 to 5 µM and less than 0.1 µM.
Take `C=CC(=O)N1CC(/C=C/c2ccc3ncnc(Nc4ccc(Oc5ccc6cn(C)nc6c5)c(C)c4)c3n2)C1` [Example 48, (E)-1-(3-(2-(4-((3-methyl-4-((2-methyl-2H-indazol-6-yl)oxy)phenyl)amino)pyrido[3,2-d]pyrimidin-6-yl)vinyl)azetidin-1-yl)prop-2-en-1-one]: the GI50 is more than 5 µM in experiment [1] and 0.1 to 1 µM in the experiment with Ba/F3 HER2 A775insYVMA.
In the case of `C=CC(=O)N(C)CCN(C)c1ncc2ncnc(Nc3ccc(Oc4ccn5ncnc5c4)c(C)c3)c2n1` [Example 14, N-(2-((8-((4-([1,2,4]triazolo[1,5-a]pyridin-7-yloxy)-3-methylphenyl)amino)pyrimido[5,4-d]pyrimidin-2-yl)(methyl)amino)ethyl)-N-methylacrylamide], the GI50 (in experiment [1]; in the experiment with Ba/F3 HER2 A775insYVMA) was 1 to 5 µM in each case.
With `C=CC(=O)N1CCC[C@H]1C#Cc1ncc2ncnc(Nc3ccc(Oc4ccn5ncnc5c4)c(C)c3)c2n1` [Example 84, (S)-1-(2-((8-((4-([1,2,4]triazolo[1,5-a]pyridin-7-yloxy)-3-methylphenyl)amino)pyrimido[5,4-d]pyrimidin-2-yl)ethynyl)pyrrolidin-1-yl)prop-2-en-1-one], the GI50 in experiment [1] is 0.1 to 1 µM; with Ba/F3 HER2 A775insYVMA, less than 0.1 µM.
For `C=CC(=O)NC/C=C/c1ccc2ncnc(Nc3ccc(Oc4cnc5c(c4)ncn5C)c(C)c3)c2n1` [Example 34, (E)-N-(3-(4-((3-methyl-4-((3-methyl-3H-imidazo[4,5-b]pyridin-6-yl)oxy)phenyl)amino)pyrido[3,2-d]pyrimidin-6-yl)allyl)acrylamide], in that order: more than 5 µM and less than 0.1 µM.
As to `C=CC(=O)N1CC(/C=C/c2ccc3ncnc(Nc4ccc(Oc5ccc6c(c5)ncn6C)c(C)c4F)c3n2)C1` [Example 46], the GI50 is 1 to 5 µM in experiment [1] and less than 0.1 µM in the experiment on Ba/F3 HER2 A775insYVMA.
